Series [1] deals with A549 tumor cells. Description: cell competition experiment, uptake of tracer (29) against excess L-ornithine. Format: cell-based, human. To be noted: 0.25 MBq tracer, 1 mM L-ornithine, incubation 30 min. The protocol:
(§1) To determine the specificity of (4S)-[^18F]-fluoro-L-ornithine (29), the fluorinated compound was used as tracer in a cell competition experiment in A549 as well as PC3 tumor cells against an excess of L-Ornithine (1 mM).
(§2) FIG. 4: The specificity of (4S)-[^18F]-fluoro-L-ornithine (29) for uptake into tumor cells was determined in cell competition experiments using A549 as well as PC3 tumor cells. (0.25 MBq of (4S)-[^18F]-fluoro-L-ornithine was used as tracer, an excess of 1 mM L-ornithine was used for saturation of uptake systems, incubation time 30 min).

The test system of the next series is PC3 tumor cells. Described as above. Format: cell-based. To be noted: 0.25 MBq tracer, 1 mM L-ornithine, incubation 30 min. The protocol:
as §1, §2

Series [2] deals with A549 cells. Description: time dependence of uptake of tracer (29), cell-bound fraction. Format: cell-based, human. To be noted: 0.25 MBq, 60 min incubation. The protocol:
(§3) In a second experiment, A549 and PC3 cells were incubated with (4S)-[^18F]-fluoro-L-ornithine for up to 60 min and the cell-bound fraction was determined. Approximately 5% of applied dose was taken up by the cells during the 60 min incubation period (FIG. 5).
(§4) FIG. 5: The time dependence of uptake of (4S)-[^18F]-fluoro-L-ornithine(29) was determined. (A549 and PC3 cells were incubated with 0.25 MBq (4S)-[^18F]-fluoro-L-ornithine for up to 60 min and the cell-bound fraction was determined after 10, 20, 30 and 60 min)

For the next series, the system named is PC3 cells. Described as above. Format: cell-based. To be noted: 0.25 MBq, 60 min incubation. The protocol: as §3, §4
The test system of series [3] is A549 tumor cells. Description: retention of activity in tumor cells under efflux conditions. The class given is cell-based, human. Conditions: A549 cells loaded 30 min with 0.25 MBq, then 30 min in new buffer (efflux conditions). The protocol:
In a third experiment, the retention of activity in tumor cells was examined. A549 cells were incubated with (4S)-[^18F]-fluoro-L-ornithine for 30 min. After this time, cells were incubated with new buffer (without radiotracer) for up to 30 min. The release of radioactivity into the supernatant as well as the retention inside the cells was examined. It was discovered, that approximately 66% of activity were retained in the tumor cells after 30 min under efflux conditions (FIG. 6).
FIG. 6: Examination of retention of (4S)-[^18F]-fluoro-L-ornithine (29) in A549 tumor cells. A549 cells were loaded with 0.25 MBq (4S)-[^18F]-fluoro-L-ornithine for 30 min in PBS. After washing, the cells were incubated with new buffer (without activity) for additional 10, 20, 30 min. The release of radioactivity into the supernatant as well as the retention inside the cells was determined.

Series [4] has as its system NCI-H460 (human NSCLC) tumor bearing rats. The series is described as follows: PET-Imaging in tumor bearing rats. The class given is in vivo, rat. The protocol: (§5) Animal experiments. (4S)-[^18F]-fluoro-L-ornithine was examined in NCI-H460 (human NSCLC) tumor bearing rats using PET-Imaging. PET images were obtained from 45 min after administration of the radiotracer (7.16 MBq) for 30 min. […] After the PET-imaging study (98 min p.i.) the rat was sacrificed, several organs were removed and the amount of radioactivity in tissues was measured.
FIG. 7: PET-Imaging of (4S)-[^18F]-fluoro-L-ornithine (29) in H460 tumor bearing rats. 7.16 MBq of radioactive tracer was injected i.v. into rats. PET images were obtained using the Inveon PET/CT scanner from 45 min p.i. for 30 min.

The test system is the same in series [5]. The series is described as follows: radioactivity in removed organs after the PET-imaging study (biodistribution). The class given is in vivo, rat. Conditions: 98 min p.i. The protocol:
as §5

Series [6] has as its system A549 cells. The series is described as follows: cell competition experiment using 14C-ornithine as tracer. Conditions: 0.1 μCi 14C-ornithine tracer, compound 1 mM, incubation 10 min. Format: cell-based, human. The protocol:
(3R)-3-fluoro-L-ornithine-dihydrochloride (31) was used in a cell competition experiment using ^14C-ornithine as tracer.
FIG. 3: The specificity of (3R)-3-fluoro-L-ornithine-dihydrochloride (31) to compete for ^14C-Ornithine uptake was determined in a cell competition experiment in A549 cells. (0.1 μCi ^14C-Ornithine was used as tracer, (3R)-3-fluoro-L-ornithine-dihydrochloride was used at a concentration of 1 mM, incubation period 10 min).

The subject of series [7] is A549 (human NSCLC) tumor cells. Description: cell competition experiment, uptake of tracer (38) against excess L-ornithine. The class given is cell-based. To be noted: 30 min incubation, 0.25 MBq tracer in PBS, L-ornithine 1 mM. The protocol: (§6) To determine the specificity of (5R)-[^18F]-fluoromethyl-L-ornithine (38), the fluorinated compound was used as tracer in a cell competition experiment in A549 (human NSCLC) as well as H460 (human NSCLC) tumor cells using an excess of L-ornithine (1 mM) for competition.
(§7) FIG. 1: Examination of biological activity of (5R)-[^18F]-fluoromethyl-L-ornithine (38) from in a cell-competition-experiment. (NCI-H460 and A549 cells, 30 min incubation with 0.25 MBq (5R)-[^18F]-fluoromethyl-L-ornithine in PBS-Puffer, concentration of L-ornithine 1 mM).

Series [8] concerns H460 (human NSCLC) tumor cells. The description is as above. The class given is cell-based. To be noted: 30 min incubation, 0.25 MBq tracer in PBS, L-ornithine 1 mM. The protocol:
as §6, §7

For series [9], the system named is PC3 (prostate) tumor cell line. The series is described as follows: time-dependence of binding of tracer (38) to tumor cell lines. The class given is cell-based. Conditions: 30 min incubation with 0.25 MBq. The protocol:
In a second experiment, the time-dependence of binding of (5R)-[^18F]-fluoromethyl-L-ornithine to several tumor cell lines was determined using A549, H460 as well as PC3 (prostate) and DU145 (prostate) tumor cell lines. After 30 min incubation with 0.25 MBq up to 5% (PC3 cells) of applied dose were bound to the cells (FIG. 2).
FIG. 2: Binding of (5R)-[^18F]-fluoromethyl-L-ornithine (38) to several tumor cell lines. (A549, H460 (both human NSCLC) as well as PC3 and DU145 (both prostate) tumor cell lines were used and incubated with 0.25 MBq (5R)-[^18F]-fluoromethyl-L-ornithine for up to 30 min. The cell-bound fraction of activity was determined after 10 min, 20 min and 30 min.

For series [10] the following is noted: Welch et al. 1986; cited from earlier work.
Where [11] appears, read: PET from 45 min p.i. for 30 min, 7.16 MBq i.v., H460 tumor.

Structures can show the parent of a compound that is named as a salt.

As to `NC[C@@H]([18F])C[C@H](N)C(=O)O` [Example 29, (4S)-[^18F]-fluoro-L-ornithine], the “uptake of tracer blockable by excess of ornithine” value in the series on A549 tumor cells [1] and with PC3 tumor cells was “blockable by excess of ornithine” throughout. The “applied dose taken up by the cells” value with A549 cells [2] and with PC3 cells was “Approximately 5 % of applied dose” each time. Moreover, the “activity retained in the tumor cells” value with A549 tumor cells [3] is “approximately 66%”. Besides, in series [4] (setting [11]), the “injected dose per gram tumor by ROI analyses” value is given as “up to 2.2 % injected dose per gram”. The “tumor visualization in PET images” value in series [4] (setting [11]) was “very well visualized”. The “defluorination in vivo, uptake of released [F18]-fluoride in the bones” value in series [4] (later time points of PET study) is given as “Some partial defluorination”. The radioactivity in blood in series [5] (blood) is reported as 0.38 % ID/g. Besides, the radioactivity in bone in [5] (bone) was found to be 2.08 % ID/g. In addition, the radioactivity in brain in series [5] (brain) worked out at 0.24 % ID/g. In addition, the radioactivity in heart in series [5] (heart) came to 0.44 % ID/g. Further, the radioactivity in kidney in series [5] (kidney) amounted to 1.18 % ID/g. Besides, in series [5] (liver), the radioactivity in liver was 0.39 % ID/g. Besides, in series [5] (lung), the radioactivity in lung worked out at 0.44 % ID/g. The radioactivity in pancreas in series [5] (pancreas) was found to be 2.47 % ID/g. For the same molecule, the radioactivity in tumor in [5] (tumor) was determined as 1.43 % ID/g.
For `NCC[C@@H](F)[C@H](N)C(=O)O` [Example 31, (3R)-3-fluoro-L-ornithine-dihydrochloride], the “block of uptake of 14C-ornithine” value with A549 cells [6] was “can block uptake of ^14C-ornithine in A549 cells to a large extent”.
Take `N[C@@H](C[18F])CC[C@H](N)C(=O)O` [Example 38, (5R)-[^18F]-fluoromethyl-L-ornithine]: the “uptake of tracer blockable by excess of L-ornithine” value in [7] and in [8] was “blockable by excess of L-ornithine” throughout. For the same molecule, in [9], the “applied dose bound to the cells” value is “up to 5 % of applied dose”.
As for [^18F]fluoro-putricine, the “in-vivo release of free [18F]fluoride” value in [10] was “relatively high in-vivo release of free [^18F]fluoride”.

Source of the values: US20110250137A1, “RADIOISOTOPE-LABELED LYSINE AND ORNITHINE DERIVATIVES, THEIR USE AND PROCESSES FOR THEIR PREPARATION” (priority 2008, published 2011).
